Test results from ChEMBL document CHEMBL1136951, “5-hydroxyindole-2-carboxylic acid amides: novel histamine-3 receptor inverse agonists for the treatment of obesity” (J Med Chem, 2009).

Assays:
[1] = physchem
[2] = human, microsomes, 2 µM
[3] = physchem; conditions: octanol/water, pH 7.4
[4] = rat, microsomes, 2 µM
[5] = species on record: Rattus norvegicus; assay: animal or person; conditions: Wistar, ip, read-out: INH
[6] = in vivo; conditions: Sprague-Dawley, rat, brain, ip, 30 mg/kg
[7] = species on record: Rattus norvegicus; assay: animal or person; conditions: Wistar, ip, read-out: INH; remark: listed apart in the source
[8] = target: hERG (KCNH2) (Homo sapiens, UniProt Q12809); assay: in vitro; conditions: CHO cells expressing human ERG
[9] = in vivo; conditions: Sprague-Dawley, rat, brain/plasma, ip, 30 mg/kg
[10] = in vivo; conditions: Wistar, rat
[11] = in vivo; conditions: Sprague-Dawley, rat, brain, po, 10 mg/kg
[12] = in vivo; conditions: Wistar, rat; remark: listed apart in the source
[13] = species on record: Rattus norvegicus; assay: animal or person; conditions: Wistar, ip, read-out: INH; remark: listed apart in the source
[14] = target: Histamine H3 receptor (Homo sapiens) (UniProt Q9Y5N1); conditions: CHO, 3 uM
[15] = in vivo; conditions: Sprague-Dawley, rat, brain, ip, 10 mg/kg
[16] = species on record: Rattus norvegicus; assay: animal or person; conditions: Wistar, po, read-out: INH
[17] = physchem; remark: listed apart in the source
[18] = species on record: Rattus norvegicus; assay: animal or person; conditions: Wistar, ip, read-out: INH; remark: listed apart in the source
[19] = in vivo; conditions: Wistar, rat; remark: listed apart in the source
[20] = target: Histamine H2 receptor (Homo sapiens) (UniProt P25021); conditions: CHO, 3 uM
[21] = target: Histamine H4 receptor (Homo sapiens) (UniProt Q9H3N8); conditions: CHO, 3 uM
[22] = target: Histamine H1 receptor (Homo sapiens) (UniProt P35367); conditions: CHO, 3 uM
[23] = species on record: Rattus norvegicus; assay: animal or person; conditions: Wistar, po, read-out: INH; remark: listed apart in the source

Chain of hERG (KCNH2) (Q12809 whole entry): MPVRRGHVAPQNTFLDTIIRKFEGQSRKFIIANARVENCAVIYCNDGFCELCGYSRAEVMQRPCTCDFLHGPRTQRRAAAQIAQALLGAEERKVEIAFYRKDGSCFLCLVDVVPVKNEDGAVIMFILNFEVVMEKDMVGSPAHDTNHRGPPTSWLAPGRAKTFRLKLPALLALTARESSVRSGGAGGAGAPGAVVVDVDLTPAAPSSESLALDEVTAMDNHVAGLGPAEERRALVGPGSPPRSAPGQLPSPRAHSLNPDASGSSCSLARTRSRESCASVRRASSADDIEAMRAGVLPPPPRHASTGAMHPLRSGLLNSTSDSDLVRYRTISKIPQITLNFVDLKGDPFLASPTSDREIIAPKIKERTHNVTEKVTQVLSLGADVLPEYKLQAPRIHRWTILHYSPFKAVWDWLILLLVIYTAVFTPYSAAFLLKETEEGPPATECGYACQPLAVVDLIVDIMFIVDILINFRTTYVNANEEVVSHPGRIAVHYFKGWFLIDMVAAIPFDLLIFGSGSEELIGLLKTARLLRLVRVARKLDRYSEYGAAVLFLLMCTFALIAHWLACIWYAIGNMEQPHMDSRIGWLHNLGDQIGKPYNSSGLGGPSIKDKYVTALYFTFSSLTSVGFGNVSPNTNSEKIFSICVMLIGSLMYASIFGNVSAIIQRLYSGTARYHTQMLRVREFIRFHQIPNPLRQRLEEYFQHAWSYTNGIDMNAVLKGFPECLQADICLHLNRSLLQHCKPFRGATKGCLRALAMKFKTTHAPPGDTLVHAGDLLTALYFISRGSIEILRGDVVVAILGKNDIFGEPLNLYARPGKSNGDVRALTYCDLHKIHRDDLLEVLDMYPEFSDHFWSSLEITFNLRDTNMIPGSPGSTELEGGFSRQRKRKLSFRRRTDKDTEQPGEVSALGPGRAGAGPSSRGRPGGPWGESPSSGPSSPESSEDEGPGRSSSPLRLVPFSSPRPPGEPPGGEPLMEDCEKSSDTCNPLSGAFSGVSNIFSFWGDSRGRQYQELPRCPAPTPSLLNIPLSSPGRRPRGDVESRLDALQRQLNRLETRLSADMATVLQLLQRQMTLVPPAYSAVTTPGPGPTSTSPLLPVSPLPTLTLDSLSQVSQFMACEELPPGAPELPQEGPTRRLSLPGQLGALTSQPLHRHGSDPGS
Chain of Histamine H2 receptor (Homo sapiens) (P25021 whole entry): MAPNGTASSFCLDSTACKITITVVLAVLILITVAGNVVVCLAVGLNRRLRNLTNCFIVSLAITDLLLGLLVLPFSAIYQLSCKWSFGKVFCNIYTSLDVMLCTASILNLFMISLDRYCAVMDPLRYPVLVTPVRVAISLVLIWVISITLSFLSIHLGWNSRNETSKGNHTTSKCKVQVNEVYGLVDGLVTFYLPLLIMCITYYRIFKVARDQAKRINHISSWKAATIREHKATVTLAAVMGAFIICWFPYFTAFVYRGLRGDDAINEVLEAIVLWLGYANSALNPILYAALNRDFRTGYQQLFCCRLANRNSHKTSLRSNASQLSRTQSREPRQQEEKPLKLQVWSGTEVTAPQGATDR
Chain of Histamine H3 receptor (Homo sapiens) (Q9Y5N1 whole entry): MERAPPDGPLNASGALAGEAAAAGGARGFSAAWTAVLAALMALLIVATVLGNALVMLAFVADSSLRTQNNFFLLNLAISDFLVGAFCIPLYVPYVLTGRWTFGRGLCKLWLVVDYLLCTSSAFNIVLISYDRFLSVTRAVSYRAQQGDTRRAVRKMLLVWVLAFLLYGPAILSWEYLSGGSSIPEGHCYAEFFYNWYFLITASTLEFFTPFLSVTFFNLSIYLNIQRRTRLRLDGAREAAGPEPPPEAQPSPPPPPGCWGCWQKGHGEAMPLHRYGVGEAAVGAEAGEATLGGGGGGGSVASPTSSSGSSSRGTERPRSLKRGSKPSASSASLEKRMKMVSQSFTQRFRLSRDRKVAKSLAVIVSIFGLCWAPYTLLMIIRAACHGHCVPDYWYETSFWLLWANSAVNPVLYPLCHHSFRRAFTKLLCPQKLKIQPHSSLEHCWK
Chain of Histamine H4 receptor (Homo sapiens) (Q9H3N8 whole entry): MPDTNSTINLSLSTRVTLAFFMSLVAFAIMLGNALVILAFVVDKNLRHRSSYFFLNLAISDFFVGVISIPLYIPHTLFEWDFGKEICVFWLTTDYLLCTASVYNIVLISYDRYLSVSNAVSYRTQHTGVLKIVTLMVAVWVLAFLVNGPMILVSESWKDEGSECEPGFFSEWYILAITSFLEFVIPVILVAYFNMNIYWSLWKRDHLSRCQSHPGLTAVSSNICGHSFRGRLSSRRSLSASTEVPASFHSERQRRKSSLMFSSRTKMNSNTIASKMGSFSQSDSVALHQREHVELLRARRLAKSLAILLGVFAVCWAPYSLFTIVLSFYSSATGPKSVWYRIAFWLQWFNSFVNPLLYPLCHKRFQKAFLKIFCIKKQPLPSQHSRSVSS
Chain of Histamine H1 receptor (Homo sapiens) (P35367 whole entry): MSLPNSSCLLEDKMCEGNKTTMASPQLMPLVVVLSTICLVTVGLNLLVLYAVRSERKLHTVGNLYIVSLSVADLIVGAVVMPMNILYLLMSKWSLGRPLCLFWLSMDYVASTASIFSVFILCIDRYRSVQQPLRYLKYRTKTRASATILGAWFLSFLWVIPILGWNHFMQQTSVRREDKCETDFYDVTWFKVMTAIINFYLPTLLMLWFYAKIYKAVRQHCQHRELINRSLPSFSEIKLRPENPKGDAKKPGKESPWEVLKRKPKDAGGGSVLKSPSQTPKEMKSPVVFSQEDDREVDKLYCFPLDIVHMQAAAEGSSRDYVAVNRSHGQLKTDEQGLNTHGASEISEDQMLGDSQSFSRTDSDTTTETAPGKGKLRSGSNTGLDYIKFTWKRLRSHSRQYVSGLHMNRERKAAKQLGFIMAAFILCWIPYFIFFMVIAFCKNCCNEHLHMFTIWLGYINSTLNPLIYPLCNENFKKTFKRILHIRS

Row | SMILES | pKa [1] | clearance [2] [µL/min/mg] | logD [3] | clearance [4] [µL/min/mg] | also measured
1 | CC(C)N1CCC(Oc2ccc3[nH]c(C(=O)N4CCCC(F)(F)C4)cc3c2)CC1 | 10 | < 1 | 1.23 | 17 | inhibition in vivo at 10 mg/kg [5]: 86%
2 | CC(C)N1CCC(Oc2ccc3cc(C(=O)N4CCOCC4)[nH]c3c2)CC1 | 9.7 | < 1 | 0.31 | 8 | inhibition in vivo at 10 mg/kg [5]: 60%
3 | CC(C)N1CCC(Oc2ccc3[nH]c(C(=O)N4CCCCCC4)cc3c2)CC1 | 9.7 | 10 | 1.75 | 55 | inhibition in vivo at 10 mg/kg [5]: 76%
4 | Cc1[nH]c2ccc(OC3CCN(C(C)C)CC3)cc2c1C(=O)N1CCOCC1 | 9.8 | < 1 | -0.12 | 15 | –
5 | CC(C)N1CCC(Oc2ccc3[nH]c(C(=O)N4CCOCC4)cc3c2)CC1 | 10 | < 1 | 0.09 | 12 | concentration at 2 h [6]: 2230 ng/g; inhibition in vivo at 30 mg/kg [7]: 91%; inhibition at 10 µM [8]: 28%; Kp [9]: 0.3; half-life [10]: 60 min
6 | CC(=O)n1c(C(=O)N2CCC(F)(F)CC2)cc2cc(OC3CCN(C(C)C)CC3)ccc21 | – | < 1 | – | – | –
7 | CC(C)N1CCC(Nc2ccc3[nH]c(C(=O)N4CCOCC4)cc3c2)CC1 | 9.9 | 5 | -0.7 | 9 | inhibition in vivo at 30 mg/kg [7]: 99%
8 | CC(C)(C)N1CCC(Oc2ccc3[nH]c(C(=O)N4CCOCC4)cc3c2)CC1 | 10 | 10 | 0.03 | 13 | –
9 | CC(C)N1CCC(Oc2cc3[nH]c(C(=O)N4CCOCC4)cc3cc2F)CC1 | 9.5 | 6 | – | 18 | –
10 | CC(C)N1CCC(Oc2ccc3c(c2)cc(C(=O)N2CCC(F)(F)CC2)n3C(C)C)CC1 | 9.9 | 4 | 1.67 | 12 | concentration at 2 h [11]: 1270 ng/g; inhibition at 10 µM [8]: 42%; half-life [10]: 660 min; Vd [12]: 9.2 L/kg; inhibition in vivo at 3 mg/kg [13]: 80%
11 | CCN(c1ccc2[nH]c(C(=O)N3CCOCC3)cc2c1)C1CCN(C(C)C)CC1 | – | – | – | – | inhibition [14]: 19%
12 | CC(C)N1CCC(Oc2ccc3[nH]c(C(=O)N4CCC(O)C4)cc3c2)CC1 (stereo not drawn) | 9.8 | 12 | -0.15 | 5 | inhibition in vivo at 30 mg/kg [7]: 83%
13 | CCOC(=O)c1cc2cc(C(=O)O)ccc2[nH]1 | – | < 1 | 0.04 | 15 | –
14 | CC(C)N1CCC(Oc2ccc3c(c2)cc(C(=O)N2CCC(F)(F)CC2)n3CC(F)(F)F)CC1 | 9.7 | 2 | 2.08 | 8 | concentration at 2 h [15]: 435 ng/g; half-life [10]: 108 min; inhibition in vivo at 3 mg/kg [13]: 49%
15 | O=C(c1cc2cc(OC3CCN(C4CC4)CC3)ccc2n1CC(F)(F)F)N1CCOCC1 | 7.5 | 11 | 2.79 | 143 | –
16 | CC(C)N1CCC(Oc2ccc3c(c2)cc(C(=O)N2CCOCC2)n3CC(F)(F)F)CC1 | 9.7 | < 1 | 1.1 | 13 | inhibition in vivo at 10 mg/kg [16]: 87%; inhibition in vivo at 10 mg/kg [5]: 87%
17 | CC(C)N1CCC(Oc2ccc3[nH]c(C(=O)N4CCC(F)(F)CC4)cc3c2)CC1 | 9.7 | 5 | 1.2 | 9 | solubility [17]: > 540 µg/mL; concentration at 2 h [11]: 1690 ng/g; inhibition at 10 µM [8]: 73%; inhibition in vivo at 1 mg/kg [18]: 58%; half-life [10]: 240 min; bioavailability [19]: 100%
18 | CC(C)N1CCC(Oc2ccc3c(c2)cc(C(=O)N2CCC(F)(F)CC2)n3-c2ccc(Cl)c(Cl)c2)CC1 | – | < 1 | 3.38 | 104 | inhibition [20]: > 30%
19 | O=C(c1ccc2c(c1)cc(C(=O)N1CCOCC1)n2CC(F)(F)F)N1CCN(C2CCC2)CC1 | 6.8 | 10 | 1.97 | 16 | inhibition in vivo at 10 mg/kg [16]: 93%; inhibition at 10 µM [8]: 33%; Kp [9]: 0.3; Vd [12]: 1.5 L/kg
20 | CC(C)N1CCC(Oc2ccc3c(c2)cc(C(=O)N2CCC(F)(F)CC2)n3CC#N)CC1 | 9.8 | < 1 | 1.13 | 16 | –
21 | COC1CCN(C(=O)c2cc3cc(OC4CCN(C(C)C)CC4)ccc3[nH]2)CC1 | 9.9 | 5 | 0.59 | 20 | inhibition in vivo at 30 mg/kg [7]: 70%
22 | O=C(c1cc2cc(OCCCN3CCCCC3)ccc2[nH]1)N1CCOCC1 | 10 | < 1 | 0.32 | 6 | inhibition [20]: 3%; inhibition [21]: 4%; inhibition in vivo at 10 mg/kg [5]: 66%; inhibition [22]: 6%
23 | O=C(c1cc2cc(OC3CCN(C4COC4)CC3)ccc2n1CC(F)(F)F)N1CCOCC1 | 6.4 | 8 | 1.83 | 228 | –
24 | O=C(c1cc2cc(OC3CCN(C4CCC4)CC3)ccc2n1CC(F)(F)F)N1CCOCC1 | 9.1 | 4 | 2.09 | 28 | –
25 | O=C(c1cc2cc(OC3CCN(C4CC4)CC3)ccc2[nH]1)N1CCOCC1 | 7.7 | 5 | 1.95 | 347 | –
26 | CC(C)N1CCC(Oc2ccc3c(c2)cc(C(=O)N2CCC(F)(F)CC2)n3S(C)(=O)=O)CC1 | 9.6 | < 1 | 1.31 | 10 | inhibition at 10 µM [8]: 64%; inhibition in vivo at 3 mg/kg [23]: 81%; half-life [10]: 360 min; Vd [12]: 9.2 L/kg
27 | CC(C)N1CCC(Oc2ccc3c(c2)cc(C(=O)N2CCS(=O)(=O)CC2)n3CC(F)(F)F)CC1 | 9.6 | 1 | 0.35 | 4 | –
28 | CC(C)N1CCC(Oc2ccc3c(c2)cc(C(=O)N2CCC(F)(F)CC2)n3S(=O)(=O)c2ccc(F)cc2)CC1 | – | < 1 | 3.04 | 20 | inhibition [20]: > 30%
